{"source": "ChEMBL document CHEMBL5465560", "about": "“Selectivity Literature for EUbOPEN Chemogenomic Library” (2024)", "key": {"[1]": {"target": "Serine/threonine-protein kinase MRCK gamma (Homo sapiens) (UniProt Q6DT37)", "sequence (Q6DT37 whole entry)": "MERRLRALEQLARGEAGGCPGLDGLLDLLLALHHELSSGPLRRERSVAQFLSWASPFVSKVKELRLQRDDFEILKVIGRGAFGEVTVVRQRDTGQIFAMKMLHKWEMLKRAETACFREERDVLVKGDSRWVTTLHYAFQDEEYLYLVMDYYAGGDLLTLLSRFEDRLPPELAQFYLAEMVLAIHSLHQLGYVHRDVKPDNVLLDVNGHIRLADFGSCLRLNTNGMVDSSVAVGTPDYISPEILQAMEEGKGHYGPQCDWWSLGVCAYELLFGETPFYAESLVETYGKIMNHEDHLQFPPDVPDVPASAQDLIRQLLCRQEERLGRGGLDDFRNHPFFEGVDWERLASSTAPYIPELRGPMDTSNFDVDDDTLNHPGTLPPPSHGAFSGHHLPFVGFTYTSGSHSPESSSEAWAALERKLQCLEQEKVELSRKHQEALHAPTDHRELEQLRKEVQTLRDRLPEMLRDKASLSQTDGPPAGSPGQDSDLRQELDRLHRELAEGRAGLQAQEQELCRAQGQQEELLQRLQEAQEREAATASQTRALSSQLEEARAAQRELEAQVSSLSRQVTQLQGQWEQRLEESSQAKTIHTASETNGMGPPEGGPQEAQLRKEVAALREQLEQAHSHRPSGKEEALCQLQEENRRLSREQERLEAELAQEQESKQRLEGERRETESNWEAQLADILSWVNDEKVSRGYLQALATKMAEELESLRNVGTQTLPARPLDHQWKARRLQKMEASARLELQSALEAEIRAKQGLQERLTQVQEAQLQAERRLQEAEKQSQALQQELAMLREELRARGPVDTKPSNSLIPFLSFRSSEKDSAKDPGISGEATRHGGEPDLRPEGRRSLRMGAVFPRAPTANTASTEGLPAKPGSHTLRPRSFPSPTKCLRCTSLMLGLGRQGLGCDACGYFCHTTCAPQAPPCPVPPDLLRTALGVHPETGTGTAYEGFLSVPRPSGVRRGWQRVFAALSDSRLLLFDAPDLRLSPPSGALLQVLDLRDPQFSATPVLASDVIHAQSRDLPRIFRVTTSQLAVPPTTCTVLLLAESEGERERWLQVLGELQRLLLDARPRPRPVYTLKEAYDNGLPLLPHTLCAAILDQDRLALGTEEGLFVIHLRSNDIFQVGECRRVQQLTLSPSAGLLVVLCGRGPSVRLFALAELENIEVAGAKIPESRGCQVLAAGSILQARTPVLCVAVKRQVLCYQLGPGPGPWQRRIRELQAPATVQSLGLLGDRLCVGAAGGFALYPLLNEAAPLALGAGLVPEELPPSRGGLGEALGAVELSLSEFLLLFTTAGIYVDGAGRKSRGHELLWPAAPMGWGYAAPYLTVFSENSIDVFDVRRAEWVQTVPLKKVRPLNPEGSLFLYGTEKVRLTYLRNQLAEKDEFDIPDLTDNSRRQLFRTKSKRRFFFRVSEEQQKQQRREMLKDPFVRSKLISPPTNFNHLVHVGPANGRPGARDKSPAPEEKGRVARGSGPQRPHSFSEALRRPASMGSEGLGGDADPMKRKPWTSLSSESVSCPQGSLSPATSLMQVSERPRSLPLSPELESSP", "conditions": "at 10 µM"}, "[2]": {"target": "Protein kinase C eta type (Homo sapiens) (UniProt P24723)", "sequence (P24723 whole entry)": "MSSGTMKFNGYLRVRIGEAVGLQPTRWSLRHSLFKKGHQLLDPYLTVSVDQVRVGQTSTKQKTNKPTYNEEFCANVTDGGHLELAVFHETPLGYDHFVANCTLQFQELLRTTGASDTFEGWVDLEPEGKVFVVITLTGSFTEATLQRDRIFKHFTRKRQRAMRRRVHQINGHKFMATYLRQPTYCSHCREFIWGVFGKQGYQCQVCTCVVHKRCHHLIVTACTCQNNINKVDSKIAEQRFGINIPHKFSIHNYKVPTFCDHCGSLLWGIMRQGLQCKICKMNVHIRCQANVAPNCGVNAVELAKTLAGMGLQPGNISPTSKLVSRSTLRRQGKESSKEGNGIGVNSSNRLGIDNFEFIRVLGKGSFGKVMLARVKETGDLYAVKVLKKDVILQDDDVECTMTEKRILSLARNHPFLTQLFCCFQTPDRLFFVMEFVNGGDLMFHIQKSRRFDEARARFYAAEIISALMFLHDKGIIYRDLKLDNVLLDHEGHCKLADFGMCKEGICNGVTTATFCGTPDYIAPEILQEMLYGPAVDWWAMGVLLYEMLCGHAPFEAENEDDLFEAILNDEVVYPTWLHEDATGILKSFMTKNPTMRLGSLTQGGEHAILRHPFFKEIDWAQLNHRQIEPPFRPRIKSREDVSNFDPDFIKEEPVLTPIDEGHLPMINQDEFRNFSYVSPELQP", "test": "Selectivity interaction (KinomeScan (DiscoverX)) EUB0000655a PRKCH", "conditions": "at 10 µM"}, "[3]": {"target": "Serine/threonine-protein kinase N2 (Homo sapiens, UniProt Q16513)", "test": "Selectivity interaction (Millipore kinase profiler) EUB0000124b PKN2", "conditions": "at 10 µM"}, "[4]": {"target": "Protein kinase C theta type (Homo sapiens, UniProt Q04759)", "sequence (Q04759 whole entry, looked up)": "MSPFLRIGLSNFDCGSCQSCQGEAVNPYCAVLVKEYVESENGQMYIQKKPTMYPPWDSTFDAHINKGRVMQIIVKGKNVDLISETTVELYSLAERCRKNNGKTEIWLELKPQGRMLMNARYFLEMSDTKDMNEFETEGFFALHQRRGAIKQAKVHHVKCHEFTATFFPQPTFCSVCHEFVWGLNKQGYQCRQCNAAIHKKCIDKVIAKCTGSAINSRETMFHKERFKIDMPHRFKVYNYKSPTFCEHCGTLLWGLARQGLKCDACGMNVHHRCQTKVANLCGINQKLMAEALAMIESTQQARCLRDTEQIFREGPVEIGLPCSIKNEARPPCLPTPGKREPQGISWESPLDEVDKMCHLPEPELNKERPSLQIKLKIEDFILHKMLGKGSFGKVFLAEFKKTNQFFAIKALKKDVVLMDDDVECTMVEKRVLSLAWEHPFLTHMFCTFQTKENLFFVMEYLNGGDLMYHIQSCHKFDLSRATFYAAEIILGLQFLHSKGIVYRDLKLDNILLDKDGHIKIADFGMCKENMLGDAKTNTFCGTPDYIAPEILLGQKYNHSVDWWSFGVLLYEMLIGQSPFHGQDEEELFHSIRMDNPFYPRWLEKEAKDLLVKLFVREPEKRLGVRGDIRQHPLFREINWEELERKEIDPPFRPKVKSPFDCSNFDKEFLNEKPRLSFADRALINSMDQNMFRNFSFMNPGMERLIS", "test": "Selectivity interaction (KinomeScan (DiscoverX)) EUB0000618a PRKCQ", "conditions": "at 10 µM"}, "[5]": {"target": "Dual specificity testis-specific protein kinase 1 (Homo sapiens) (UniProt Q15569)", "sequence (Q15569 whole entry, looked up)": "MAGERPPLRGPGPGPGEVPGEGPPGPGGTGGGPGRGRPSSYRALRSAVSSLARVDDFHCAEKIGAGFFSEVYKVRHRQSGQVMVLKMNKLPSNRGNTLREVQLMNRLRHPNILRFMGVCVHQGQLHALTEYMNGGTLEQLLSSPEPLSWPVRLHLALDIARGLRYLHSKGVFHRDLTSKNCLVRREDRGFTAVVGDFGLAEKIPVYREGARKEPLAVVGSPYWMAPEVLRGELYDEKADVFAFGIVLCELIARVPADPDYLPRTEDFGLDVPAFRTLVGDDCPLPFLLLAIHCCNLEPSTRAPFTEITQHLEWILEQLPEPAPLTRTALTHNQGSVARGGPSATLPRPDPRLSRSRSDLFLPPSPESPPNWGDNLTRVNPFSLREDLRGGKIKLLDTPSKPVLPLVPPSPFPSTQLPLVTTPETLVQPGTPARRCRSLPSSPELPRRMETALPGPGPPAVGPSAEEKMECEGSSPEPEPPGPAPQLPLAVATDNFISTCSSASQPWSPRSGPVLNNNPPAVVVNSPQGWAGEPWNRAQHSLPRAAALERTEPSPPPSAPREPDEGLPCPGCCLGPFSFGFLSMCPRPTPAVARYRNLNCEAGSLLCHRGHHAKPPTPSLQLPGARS", "test": "Selectivity interaction (KinomeScan (DiscoverX)) EUB0000607a TESK1", "conditions": "at 10 µM"}, "[6]": {"target": "ALK tyrosine kinase receptor (Homo sapiens, UniProt Q9UM73)", "test": "Selectivity interaction (KinomeScan (DiscoverX)) EUB0000607a ALK", "conditions": "at 10 µM"}, "[7]": {"target": "Mitogen-activated protein kinase 14 (Homo sapiens, UniProt Q16539)", "sequence (Q16539 whole entry)": "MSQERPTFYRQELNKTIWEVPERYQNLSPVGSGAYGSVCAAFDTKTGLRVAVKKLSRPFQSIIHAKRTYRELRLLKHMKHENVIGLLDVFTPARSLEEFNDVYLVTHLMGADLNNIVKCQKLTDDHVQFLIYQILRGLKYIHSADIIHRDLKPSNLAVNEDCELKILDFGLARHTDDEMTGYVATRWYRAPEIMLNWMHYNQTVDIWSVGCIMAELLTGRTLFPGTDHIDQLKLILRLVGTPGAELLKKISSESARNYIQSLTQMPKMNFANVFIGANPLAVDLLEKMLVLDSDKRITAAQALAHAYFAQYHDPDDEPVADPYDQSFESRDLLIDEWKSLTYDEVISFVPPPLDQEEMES", "test": "Selectivity interaction (ActivX KiNativ screen (ex vivo kinase selectivity in human PBMCs)) EUB0001619a MAPK14", "assay_type": "cell-based", "conditions": "PBMC, at 1 µM"}, "[8]": {"system": "Epidermal growth factor receptor (Homo sapiens), P00533 [L858R]", "conditions": "at 10 µM"}, "[9]": {"target": "Dual specificity protein kinase CLK2 (Homo sapiens, UniProt P49760)", "sequence (P49760 whole entry, looked up)": "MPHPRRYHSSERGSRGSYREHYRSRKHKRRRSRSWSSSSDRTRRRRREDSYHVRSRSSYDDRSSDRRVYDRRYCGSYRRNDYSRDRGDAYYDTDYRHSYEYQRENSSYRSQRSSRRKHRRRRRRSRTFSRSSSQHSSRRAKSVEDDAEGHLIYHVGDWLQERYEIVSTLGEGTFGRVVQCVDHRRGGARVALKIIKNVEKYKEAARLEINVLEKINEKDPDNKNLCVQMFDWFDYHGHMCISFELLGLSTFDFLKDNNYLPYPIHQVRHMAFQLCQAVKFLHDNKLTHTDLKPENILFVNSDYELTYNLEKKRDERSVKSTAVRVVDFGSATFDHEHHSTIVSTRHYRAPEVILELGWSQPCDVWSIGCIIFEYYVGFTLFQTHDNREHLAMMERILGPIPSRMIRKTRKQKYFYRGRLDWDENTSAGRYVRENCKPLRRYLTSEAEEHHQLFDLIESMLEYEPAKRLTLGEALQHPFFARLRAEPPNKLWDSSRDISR", "test": "Selectivity interaction (Kinase panel (Invitrogen)) EUB0000639a CLK2", "conditions": "at 200 nM"}, "[10]": {"target": "T1, Serine/threonine-protein kinase PLK1 (Homo sapiens, UniProt P53350)", "T1 sequence (P53350 whole entry)": "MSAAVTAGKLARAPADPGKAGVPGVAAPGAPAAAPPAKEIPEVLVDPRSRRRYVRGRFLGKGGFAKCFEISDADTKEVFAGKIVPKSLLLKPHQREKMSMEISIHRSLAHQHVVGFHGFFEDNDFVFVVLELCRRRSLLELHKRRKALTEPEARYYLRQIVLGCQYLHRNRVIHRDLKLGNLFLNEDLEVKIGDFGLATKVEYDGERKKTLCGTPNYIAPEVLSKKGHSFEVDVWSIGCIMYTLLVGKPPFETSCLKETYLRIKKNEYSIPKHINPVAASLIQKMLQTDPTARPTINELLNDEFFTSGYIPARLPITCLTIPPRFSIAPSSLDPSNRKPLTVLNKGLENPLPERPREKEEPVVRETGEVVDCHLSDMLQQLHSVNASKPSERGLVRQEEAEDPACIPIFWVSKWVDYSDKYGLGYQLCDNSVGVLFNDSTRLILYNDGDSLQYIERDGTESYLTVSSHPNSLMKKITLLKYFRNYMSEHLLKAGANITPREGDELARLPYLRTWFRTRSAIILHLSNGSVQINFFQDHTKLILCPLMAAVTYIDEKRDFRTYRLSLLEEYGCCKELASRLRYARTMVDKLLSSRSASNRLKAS", "test": "Selectivity interaction (ActivX KiNativ screen (kinase selectivity in THP-1 cell lysates)) EUB0000639a PLK1", "assay_type": "subcellular", "conditions": "lysate, at 1 µM"}, "[11]": {"target": "T2, Ephrin type-A receptor 8 (Homo sapiens) (UniProt P29322)", "T2 sequence (whole entry)": "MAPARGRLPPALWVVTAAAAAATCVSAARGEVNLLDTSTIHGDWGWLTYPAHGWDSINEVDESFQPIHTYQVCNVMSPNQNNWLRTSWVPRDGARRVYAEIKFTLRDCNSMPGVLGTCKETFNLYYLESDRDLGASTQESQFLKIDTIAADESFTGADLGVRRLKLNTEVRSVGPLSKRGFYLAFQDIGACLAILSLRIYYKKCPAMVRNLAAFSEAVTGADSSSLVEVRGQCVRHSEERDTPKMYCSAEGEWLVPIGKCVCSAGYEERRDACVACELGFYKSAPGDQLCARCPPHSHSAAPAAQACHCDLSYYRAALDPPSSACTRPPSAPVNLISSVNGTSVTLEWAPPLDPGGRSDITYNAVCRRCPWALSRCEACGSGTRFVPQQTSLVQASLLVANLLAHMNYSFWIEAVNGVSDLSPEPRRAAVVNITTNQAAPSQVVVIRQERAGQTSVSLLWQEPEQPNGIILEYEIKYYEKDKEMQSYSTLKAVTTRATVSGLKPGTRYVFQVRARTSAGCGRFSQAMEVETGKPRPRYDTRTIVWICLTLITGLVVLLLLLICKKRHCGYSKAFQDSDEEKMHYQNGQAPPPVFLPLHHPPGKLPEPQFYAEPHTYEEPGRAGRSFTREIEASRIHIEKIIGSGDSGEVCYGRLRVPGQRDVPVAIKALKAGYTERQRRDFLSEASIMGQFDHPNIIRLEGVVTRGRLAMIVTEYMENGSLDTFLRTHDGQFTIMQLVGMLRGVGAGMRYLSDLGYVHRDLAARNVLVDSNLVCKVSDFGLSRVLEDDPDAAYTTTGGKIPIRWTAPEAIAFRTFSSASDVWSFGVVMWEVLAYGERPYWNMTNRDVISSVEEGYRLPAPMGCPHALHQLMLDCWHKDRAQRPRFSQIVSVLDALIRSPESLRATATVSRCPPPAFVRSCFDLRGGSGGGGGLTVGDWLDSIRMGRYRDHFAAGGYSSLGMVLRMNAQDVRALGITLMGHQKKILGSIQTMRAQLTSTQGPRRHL", "test": "Selectivity interaction (KinomeScan (DiscoverX)) EUB0000229b EPHA8", "conditions": "at 10 µM"}, "[12]": {"target": "T3, Interleukin-1 receptor-associated kinase 4 (Homo sapiens) (UniProt Q9NWZ3)", "T3 sequence (whole entry)": "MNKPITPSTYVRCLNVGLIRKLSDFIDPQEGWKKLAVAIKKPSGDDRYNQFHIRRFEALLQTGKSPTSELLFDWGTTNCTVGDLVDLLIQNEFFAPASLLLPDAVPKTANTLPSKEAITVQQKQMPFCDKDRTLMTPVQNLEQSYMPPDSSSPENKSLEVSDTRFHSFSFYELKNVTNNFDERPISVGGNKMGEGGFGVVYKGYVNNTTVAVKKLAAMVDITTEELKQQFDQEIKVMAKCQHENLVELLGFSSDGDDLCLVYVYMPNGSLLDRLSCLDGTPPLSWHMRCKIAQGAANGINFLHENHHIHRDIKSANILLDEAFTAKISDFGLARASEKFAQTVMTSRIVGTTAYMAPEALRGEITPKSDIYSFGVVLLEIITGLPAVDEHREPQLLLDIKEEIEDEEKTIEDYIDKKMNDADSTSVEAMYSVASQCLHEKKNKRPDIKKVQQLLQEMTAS", "test": "Selectivity interaction (KinomeScan (DiscoverX)) EUB0001049a IRAK4", "conditions": "at 1 µM"}, "[13]": {"target": "T1, Serine/threonine-protein kinase PLK1", "test": "Selectivity interaction (KinomeScan (DiscoverX)) EUB0000666a PLK1", "conditions": "at 10 µM"}, "[14]": {"target": "T4, Serine/threonine-protein kinase RIO3 (Homo sapiens) (UniProt O14730)", "T4 sequence (whole entry)": "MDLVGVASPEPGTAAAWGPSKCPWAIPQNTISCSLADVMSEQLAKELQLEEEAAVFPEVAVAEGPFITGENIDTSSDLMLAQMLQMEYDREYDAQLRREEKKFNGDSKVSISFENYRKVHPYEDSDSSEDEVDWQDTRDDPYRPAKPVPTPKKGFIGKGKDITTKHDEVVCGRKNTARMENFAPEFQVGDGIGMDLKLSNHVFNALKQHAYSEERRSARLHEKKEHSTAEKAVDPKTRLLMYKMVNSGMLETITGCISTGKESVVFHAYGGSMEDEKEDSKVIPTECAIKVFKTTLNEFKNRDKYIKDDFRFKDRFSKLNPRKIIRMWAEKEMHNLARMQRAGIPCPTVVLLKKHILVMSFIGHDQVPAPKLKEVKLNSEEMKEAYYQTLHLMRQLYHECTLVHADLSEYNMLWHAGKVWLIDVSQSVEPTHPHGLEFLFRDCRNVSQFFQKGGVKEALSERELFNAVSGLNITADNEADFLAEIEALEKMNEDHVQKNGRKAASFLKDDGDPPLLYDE", "test": "Selectivity interaction (KinomeScan (DiscoverX)) EUB0001868a RIOK3", "conditions": "at 1 µM"}, "[15]": {"target": "Receptor-type tyrosine-protein kinase FLT3 (Homo sapiens) (UniProt P36888)", "test": "Selectivity interaction (Kinase panel (Z-LYTE Assay)) EUB0001632a FLT3", "conditions": "at 10 µM"}}, "data": [{"smiles": "CCN(CC)CCCCNc1ncc2cc(-c3cc(OC)cc(OC)c3)c(NC(=O)NC(C)(C)C)nc2n1", "values": [{"measurement": "% of control", "setting": "[1]", "value": 100, "unit": "%"}]}, {"smiles": "CN(C)CCOc1ccc(-c2nc(-c3ccncc3)c(-c3ccc4c(c3)CC/C4=N\\O)[nH]2)cc1", "values": [{"measurement": "% of control", "setting": "[2]", "value": 100, "unit": "%"}]}, {"smiles": "CC(=O)Nc1cccc(-n2c(=O)n(C3CC3)c(=O)c3c(Nc4ccc(I)cc4F)n(C)c(=O)c(C)c32)c1", "values": [{"measurement": "% of control", "setting": "[3]", "value": 98, "unit": "%"}]}, {"smiles": "O[C@H]1CC[C@H](Nc2ncc3nc(Nc4c(F)cc(F)cc4F)n([C@H]4CCOC4)c3n2)CC1", "values": [{"measurement": "% of control", "setting": "[4]", "value": 100, "unit": "%"}]}, {"smiles": "CNC(=O)Nc1ccc(-c2nc(N3CC4CCC(C3)O4)c3cnn(C4CCC5(CC4)OCCO5)c3n2)cc1", "values": [{"measurement": "% of control", "setting": "[5]", "value": 80, "unit": "%"}, {"measurement": "% of control", "setting": "[6]", "value": 42, "unit": "%"}]}, {"smiles": "N#Cc1cccc(-c2c[nH]c3ncnc(N4CCOCC4)c23)c1", "values": [{"measurement": "% of inhibition", "setting": "[7]", "value": -15, "unit": "%"}]}, {"smiles": "Cc1cc([C@@H](C)Nc2ccccc2C(=O)O)c2nc(N3CCOCC3)cc(=O)n2c1", "note": "[AZD-6482]", "values": [{"measurement": "% of control", "setting": "[8]", "value": 100, "unit": "%"}]}, {"smiles": "CC[C@@H]1[C@H](F)C(=O)N[C@@H]1COc1nccc2cc(C(N)=O)c(OC)cc12", "note": "[ZIMLOVISERTIB]", "values": [{"measurement": "% of inhibition", "setting": "[9]", "value": 14.8, "unit": "%"}, {"measurement": "% of inhibition", "setting": "[10]", "value": -2.8, "unit": "%"}]}, {"smiles": "COc1cc(N(C)c2ccnc3ccc(C(F)(F)F)cc23)cc(OC)c1OC", "values": [{"measurement": "% binding", "setting": "[11]", "value": 94, "unit": "%"}]}, {"smiles": "COc1cc(Nc2nc(C)cc(-c3cnn4nc(OC)ccc34)n2)cc(C(F)(F)F)c1", "values": [{"measurement": "% of control", "setting": "[12]", "value": 87, "unit": "%"}]}, {"smiles": "O=C(NOC[C@H](O)CO)c1ccc(F)c(F)c1Nc1ccc(I)cc1F", "values": [{"measurement": "% of control", "setting": "[13]", "value": 72, "unit": "%"}]}, {"smiles": "Cc1cc(-c2ccnc(Nc3cnn(C)c3)n2)ccc1CNC(=O)N1CC(OC(C)C)C1", "values": [{"measurement": "% of control", "setting": "[14]", "value": 19, "unit": "%"}]}, {"smiles": "Cn1cc(-n2cnc3c(NCc4nc5cc(Cl)c(Cl)cc5[nH]4)nc(N4CCOCC4)nc32)cn1", "values": [{"measurement": "% of control", "setting": "[15]", "value": 34.1, "unit": "%"}]}]}
